Test results taken from US12247246B2, “Identification of inhibitors of TcpC and TIR NADase activity” (Washington University, priority 2017, dated 2025).

What was measured:
[1] = molecular target: T1, SARM1-TIR (Homo sapiens, UniProt Q6SZW1, DEL570-570/DEL657-657); experiment: Substrate specificity in NADase assay, purified SARM1-TIR; type: biochemical; details: purified TIR protein, HPLC and LC-MS, 30 minutes
T1 construct: made in house
T1 sequence (Q6SZW1 with tags, fused parts or gaps DEL570-570/DEL657-657): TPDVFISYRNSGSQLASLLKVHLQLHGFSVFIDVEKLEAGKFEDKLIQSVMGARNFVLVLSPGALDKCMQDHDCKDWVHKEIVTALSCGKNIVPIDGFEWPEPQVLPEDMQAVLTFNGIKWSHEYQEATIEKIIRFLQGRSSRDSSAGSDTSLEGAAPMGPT

[2] = tested on: prokaryotic TIR domains (TirS-TIR, TcpC-TIR, TcpA-TIR); experiment: Substrate specificity in NADase assay, purified prokaryotic TIR domains; type: biochemical; details: purified TIR proteins, HPLC and LC-MS, 30 minutes
Method: Supernatant (90 μL) containing the extracted metabolites was mixed with 0.5M Potassium Phosphate buffer (10 μL), and metabolites were analyzed by HPLC (Nexera X2) with Kinetex (100×3 mm, 2.6 μm; Phenomenex) column. Internal standards for NAD^+, Nicotinamide (Nam), ADP Ribose (ADPR), and cyclic ADPR were used to generate standard curves for quantification of the respective compounds. The levels for each compound in each experimental sample were normalized to the 0 min time point that was analyzed concurrently.
Neutralization was performed with 3M K2CO3.
Samples were prepared by mixing the reactions with 50% methanol in distilled water. The samples were placed on ice, centrifuged, soluble metabolites in the supernatant were extracted with chloroform, and the aqueous phase was lyophilized and stored at −20° C. until LC-MS analysis. For LC-MS, the metabolite samples were reconstituted with 5 mM ammonium formate, centrifuged 12,000×g for 10 min, and the cleared supernatant was applied to the LC-MS for metabolite identification and quantification. Liquid chromatography was performed by HPLC system (1290; Agilent) with Atlantis T3 (2.1×150 mm, 3 μm; Waters) column. Samples (10 µl) were injected at a flow rate of 0.15 ml/min with 5 mM ammonium formate for mobile phase A and 100% methanol for mobile phase B and metabolites were eluted with gradients of 2-6 min, 0-20% B; 6-8 min, 20-50% B; 8-10 min 50% B; 10-15 min, 50-0% B. The metabolites were detected with Triple Quad mass spectrometer (6460; Agilent) under positive ESI multiple reaction monitoring (MRM). Metabolites were quantified by MassHunter quantitative analysis tool (Agilent) with standard curves. Standard curves for each compound were generated by analyzing NAD^+, cADPR, ADPR, and Nam reconstituted in 5 mM ammonium formate.
In some instances, NADases are capable of cleaving a number of related molecules, such as the NAD+ precursor Nicotinamide Mononucleotide (NMN) in the case of CD38 (Sauve et al., 1998). Further, we wanted to determine whether prokaryotic TIRs could cleave additional substrates, providing additional paths to modifying cell metabolism. To examine the substrate specificity of the prokaryotic TIR domains, we tested their activity using a wide variety of metabolites and analogs.

[3] = molecular target: T2, SARM1 (Sam-Tir) (Homo sapiens, UniProt Q6SZW1); experiment: SARM1 Sam-Tir lysate NADase inhibition assay; type: biochemical; details: data not shown
T2 construct: SARM1 Sam-Tir lysate and MSSA Tir were also used; made in house; host or cells: lysate
T2 sequence (Q6SZW1 410-724 limits assumed): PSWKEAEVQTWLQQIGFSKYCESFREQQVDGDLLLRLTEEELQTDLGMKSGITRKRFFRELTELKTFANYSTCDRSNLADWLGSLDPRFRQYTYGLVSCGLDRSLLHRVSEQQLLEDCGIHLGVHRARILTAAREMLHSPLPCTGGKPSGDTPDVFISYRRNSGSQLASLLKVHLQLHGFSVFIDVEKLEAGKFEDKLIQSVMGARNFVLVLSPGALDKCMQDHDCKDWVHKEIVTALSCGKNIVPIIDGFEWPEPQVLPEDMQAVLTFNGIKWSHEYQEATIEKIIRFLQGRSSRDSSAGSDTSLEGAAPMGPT
Method: NAD (10 μM final concentration) was then added for a final reaction volume of 20 μl. The reaction was incubated at 37° C. for 60 min, and then stopped by addition of 180 μl of 0.55 M perchloric acid (HClO4) and placed on ice. After 10 min on ice, the reaction plates were centrifuged for 10 min at 4,000 rpm (Sorvall ST 16R centrifuge). The supernatant (120 μl) was transferred to a new plate and 10 μl of 3M K2CO3 was added to neutralize the solution. Precipitated salts were removed by centrifugation 10 min at 4,000 rpm (Sorvall ST 16R centrifuge). The supernatant was transferred and analyzed by HPLC (Shimadzu Nexera X2) to quantify the amounts of NAD and ADPR, a product of the cleavage reaction, in each sample. From these values, the NAD/ADPR ratio was calculated for each compound as a measure of NAD cleavage activity. This ratio was compared to the ratio generated in the absence of compound inhibitors.
(§1) Positive hits were individually purchased from Sigma and tested its dose dependent inhibition in conditions described above. SARM1 Sam-Tir lysate and MSSA Tir were also used to test if these compounds could block these Tir NADase activities as well.

[4] = molecular target: TirS (Staphylococcus aureus, UniProt P0DTS9); experiment: TirS NADase inhibition assay (in-vitro translated protein, NAD/ADPR by HPLC); type: biochemical; details: FIG. 11B
Chain of TirS (P0DTS9 141-275 limits assumed): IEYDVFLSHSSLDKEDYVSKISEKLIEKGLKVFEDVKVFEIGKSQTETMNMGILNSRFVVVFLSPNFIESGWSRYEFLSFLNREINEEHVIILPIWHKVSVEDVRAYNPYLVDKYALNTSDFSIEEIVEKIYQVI
Method: (§2) The reaction was incubated at 37° C. for 60 min, and then stopped by addition of 180 μl of 0.55 M perchloric acid (HClO4) and placed on ice. After 10 min on ice, the reaction plates were centrifuged for 10 min at 4,000 rpm (Sorvall ST 16R centrifuge). The supernatant (120 μl) was transferred to a new plate and 10 μl of 3M K2CO3 was added to neutralize the solution. Precipitated salts were removed by centrifugation 10 min at 4,000 rpm (Sorvall ST 16R centrifuge). […] This ratio was compared to the ratio generated in the absence of compound inhibitors.

[5] = molecular target: TcpC TIR (Escherichia coli O6:H1, UniProt A0A0H2V8B5); experiment: biochemical; type: biochemical, uropathogenic Escherichia coli; details: for inhibitor of TcpC TIR NADase activity (screen hit, NAD/ADPR ratio >2): Pharmakon library screen, 25 μM compound, 10 μM NAD, 37° C. 60 min, hits retested for dose dependent inhibition
Chain of TcpC TIR (A0A0H2V8B5 169-303 limits assumed): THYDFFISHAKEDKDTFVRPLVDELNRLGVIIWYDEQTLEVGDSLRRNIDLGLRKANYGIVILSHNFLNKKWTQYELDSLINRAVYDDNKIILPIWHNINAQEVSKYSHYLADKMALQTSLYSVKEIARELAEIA
Method: (§3) NRK1-HEK293T cells were seeded onto 150 cm2 plates at 20×10^6 cells per plate. […] Forty-eight hours after transfection, cells were harvested, pelleted by centrifugation at 1,000 rpm (Sorvall ST 16R centrifuge, Thermo Fisher), and washed once with cold PBS (0.01 M phosphate buffered saline NaCl 0.138 M; KCl 0.0027 M; pH 7.4). The cells were resuspended in PBS with protease inhibitors (Complete protease inhibitor cocktail, Roche product #11873580001) and cell lysates were prepared by sonication (Branson Sonifer 450, output=3, 20 episodes of stroke). […] Protein concentration was determined by the Bicinchoninic (BCA) method and used to normalize lysate concentrations.
as §2, §1

[6] = molecular target: T3, uropathogenic Escherichia coli TcpC TIR domain (TcpC-TIR) (Escherichia coli, UniProt A0A0H2V8B5); type: biochemical; details: primary screen 25 μM, 10 μM NAD, 37° C, 60 min (hit: NAD/ADPR ratio >2), then dose response; FIG. 10
T3 construct: cell lysate
T3 sequence (A0A0H2V8B5 170-307): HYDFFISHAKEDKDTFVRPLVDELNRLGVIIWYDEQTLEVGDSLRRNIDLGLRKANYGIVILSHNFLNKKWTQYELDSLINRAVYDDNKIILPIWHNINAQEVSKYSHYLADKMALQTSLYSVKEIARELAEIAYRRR
Method: as §3, §2
Positive hits were individually purchased from Sigma and tested its dose dependent inhibition in conditions described above. […]

[7] = tested on: SPN (Streptococcus Pyogenes NAD^+ glycohydrolase); details: reported value (Ghosh et al., 2010); cited from earlier work

Row | Molecule | cleavage of substrate by SARM1-TIR [1] | cleavage of substrate by prokaryotic TIR domains [2] | other results
1 | CC(=O)c1ccc[n+]([C@@H]2O[C@H](COP(=O)([O-])OP(=O)(O)OC[C@H]3O[C@@H](n4cnc5c(N)ncnc54)[C@H](O)[C@@H]3O)[C@@H](O)[C@H]2O)c1 [3-apAD, 3-acetylpyridine adenine dinucleotide] | substantially cleaved | substantially cleaved | –
2 | Nc1c2ccccc2nc2ccccc12 [9-aminoacridine] | – | – | inhibition of SARM1 (Sam-Tir) NADase activity [3]: Neither of these drugs inhibited; inhibition of TirS NADase activity, compared among acridine compounds [4]: most potent inhibition; inhibition of TcpC TIR NADase activity ([5]; data not shown): Neither of these drugs inhibited
3 | Nc1ncnc2c1ncn2[C@@H]1O[C@H](COP(=O)(O)OP(=O)(O)OP(=O)(O)O)[C@@H](O)[C@H]1O [ATP, Adenosine triphosphate] | unable to detect substantial cleavage | unable to detect substantial cleavage | –
4 | Cc1cc(N)c2ccccc2[n+]1CCCCCCCCCC[n+]1c(C)cc(N)c2ccccc21 [Dequalinium] | – | – | IC50 [5]: ~300 nM; inhibitor of TcpC TIR NADase activity (screen hit, NAD/ADPR ratio >2) [5]: potent inhibitor; inhibitor of TcpC TIR NADase activity (screen hit, NAD/ADPR ratio >2) ([5]; listed as dequalinium): inhibitors; inhibition of TcpC TIR NADase activity [6]: very potent inhibitor
5 | NC(=O)c1ccc[n+]([C@@H]2O[C@H](COP(=O)([O-])OP(=O)(O)OC[C@H]3O[C@@H](n4cnc5c(N)ncnc54)[C@H](O)[C@@H]3O)[C@@H](O)[C@H]2O)c1 [NAD+] | – | – | Km [7]: 188 µM
6 | NC(=O)c1ccc[n+]([C@@H]2O[C@H](COP(=O)([O-])OP(=O)(O)OC[C@H]3O[C@@H](n4cnc5c(=O)[nH]c(N)nc54)[C@H](O)[C@@H]3O)[C@@H](O)[C@H]2O)c1 [NGD, Nicotinamide Guanine Dinucleotide] | cleaved | did not cleave | –
7 | NC(=O)c1ccc[n+](C2OC(COP(=O)(O)OP(=O)(O)OCC3OC(n4cnc5c(=O)[nH]cnc54)C(O)C3O)C(O)C2O)c1 (stereo not shown) [NHD, Nicotinamide Hypoxanthine Dinucleotide] | cleaved | did not cleave | –
8 | NC(=O)c1ccc[n+]([C@@H]2O[C@H](COP(=O)([O-])O)[C@@H](O)[C@H]2O)c1 [NMN, Nicotinamide Mononucleotide] | – | little effect | –
9 | Nc1ncnc2c1ncn2[C@@H]1O[C@H](COP(=O)(O)OP(=O)(O)OC[C@H]2O[C@@H]([n+]3cccc(C(=O)O)c3)[C@H](O)[C@@H]2O)[C@@H](O)[C@H]1O [NaAD, Nicotinic Acid Adenine Dinucleotide] | none cleaved | none cleaved | –
10 | NC(N)=NC(=O)c1nc(Cl)c(N)nc1N [amiloride, 3,5-diamino-6-chloro-N-(diaminomethylidene)pyrazine-2-carboxamide] | – | – | inhibitor of TcpC TIR NADase activity (screen hit, NAD/ADPR ratio >2) [5]: inhibitors
11 | NC(=S)c1ccc[n+]([C@@H]2O[C@H](COP(=O)([O-])OP(=O)(O)OC[C@H]3O[C@@H](n4cnc5c(N)ncnc54)[C@H](O)[C@@H]3O)[C@@H](O)[C@H]2O)c1 [sNAD, thionicotinamide adenine dinucleotide] | substantially cleaved | substantially cleaved | –
12 | Guanine triphosphate [GTP] | unable to detect substantial cleavage | unable to detect substantial cleavage | –
13 | Nicotinamide Adenine Dinucleotide Phosphate [NADP^+] | – | cleave | –
